Values quoted from earlier work as cited in US10172902B2, “Ocular eyelid scrub composition for the treatment of demodex blepharitis” (LUNOVUS, LLC, priority 2014, dated 2019).

Tested on: ocular Demodex
Conditions: solutions, suspensions, sprays, lotions, gels, pastes, cleansers, creams or ointments

CC1=CCC(O)(C(C)C)CC1 (stereo not shown) [terpinen-4-ol]
treating an ocular Demodex infestation or Demodex-induced blepharitis: effective
